Data: patent US6117878A, “8-phenyl- or 8-cycloalkyl xanthine antagonists of A2B human adenosine receptors” (priority 1998, dated 2000)
Entries after “also recorded” stand apart in the source; their conditions may differ.

Key:
[1] = molecular target: T1, recombinant human A1 adenosine receptors (Homo sapiens, UniProt P30542); assay: Competition binding screen, A1 (Table 1)
T1 construct: expressed in transfected cells
T1 sequence (P30542 1-326): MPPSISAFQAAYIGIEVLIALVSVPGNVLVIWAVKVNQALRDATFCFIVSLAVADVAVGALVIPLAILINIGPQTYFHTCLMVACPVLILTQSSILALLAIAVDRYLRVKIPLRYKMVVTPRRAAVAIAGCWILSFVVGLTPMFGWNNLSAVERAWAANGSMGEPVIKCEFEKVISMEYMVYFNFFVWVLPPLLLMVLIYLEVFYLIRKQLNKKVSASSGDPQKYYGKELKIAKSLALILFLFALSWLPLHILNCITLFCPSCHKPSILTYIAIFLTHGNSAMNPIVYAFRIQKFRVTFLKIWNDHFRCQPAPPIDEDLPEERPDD
From the text: (§1) A series of compounds was screened to identify potent A2B selective antagonists. This was done in competition binding assays using recombinant human A1, A2A, A2B or A3 adenosine receptors, similar to that illustrated in FIGS. 2A and 2B.

[2] = molecular target: T2, recombinant human A2A adenosine receptors (Homo sapiens, UniProt P29274); assay: Competition binding screen, A2A (Table 1)
T2 construct: expressed in transfected cells
T2 sequence (P29274 whole entry): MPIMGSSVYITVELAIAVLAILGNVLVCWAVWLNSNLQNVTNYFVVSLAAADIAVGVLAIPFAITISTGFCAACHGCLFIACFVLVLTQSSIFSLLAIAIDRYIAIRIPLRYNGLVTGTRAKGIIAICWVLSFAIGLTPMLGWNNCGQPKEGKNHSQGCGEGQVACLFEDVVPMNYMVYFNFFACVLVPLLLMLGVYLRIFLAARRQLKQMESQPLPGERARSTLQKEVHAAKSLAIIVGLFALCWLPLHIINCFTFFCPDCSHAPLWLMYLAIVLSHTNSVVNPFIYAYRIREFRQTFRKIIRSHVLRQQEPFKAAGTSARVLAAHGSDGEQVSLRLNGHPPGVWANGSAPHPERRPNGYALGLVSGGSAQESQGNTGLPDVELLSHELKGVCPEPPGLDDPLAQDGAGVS
From the text: (§2) This was done in competition binding assays using recombinant human A1, A2A, A2B or A3 adenosine receptors, similar to that illustrated in FIGS. 2A and 2B.

[3] = molecular target: T3, recombinant human A3 adenosine receptors (Homo sapiens, UniProt P0DMS8); assay: Competition binding screen, A3 (Table 1)
T3 construct: expressed in transfected cells; host or cells: cells expressing the recombinant receptor
T3 sequence (P0DMS8 1-318): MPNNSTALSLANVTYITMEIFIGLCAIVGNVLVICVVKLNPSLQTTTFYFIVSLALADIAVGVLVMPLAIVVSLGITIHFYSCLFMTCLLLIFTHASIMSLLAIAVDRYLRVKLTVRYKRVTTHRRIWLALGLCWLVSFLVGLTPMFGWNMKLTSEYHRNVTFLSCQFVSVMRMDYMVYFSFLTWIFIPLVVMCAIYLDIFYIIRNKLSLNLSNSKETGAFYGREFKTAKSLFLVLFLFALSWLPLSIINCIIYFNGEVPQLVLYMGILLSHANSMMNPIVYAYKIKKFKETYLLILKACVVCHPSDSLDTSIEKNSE
From the text: as §1

[4] = molecular target: T4, recombinant human A2B adenosine receptors (Homo sapiens, UniProt P29275); assay: Competition binding screen, A2B (Table 1); design: expressed in transfected cells; host or cells: cells expressing the recombinant receptor
T4 sequence (P29275 1-332): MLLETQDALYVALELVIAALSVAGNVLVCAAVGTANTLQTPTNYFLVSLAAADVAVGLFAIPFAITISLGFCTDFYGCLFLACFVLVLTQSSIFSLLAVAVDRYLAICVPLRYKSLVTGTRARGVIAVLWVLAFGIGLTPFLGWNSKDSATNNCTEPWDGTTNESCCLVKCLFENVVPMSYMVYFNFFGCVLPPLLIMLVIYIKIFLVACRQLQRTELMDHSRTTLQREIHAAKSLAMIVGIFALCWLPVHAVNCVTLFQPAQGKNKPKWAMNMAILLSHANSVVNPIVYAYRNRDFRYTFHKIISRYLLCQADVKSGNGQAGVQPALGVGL
From the text: as §2

[5] = tested on: human HMC-1 mast cells; assay: Intracellular Ca2+ accumulation in HMC-1 mast cells (FURA); type: cell-based; conditions: FIG. 1A
[6] = tested on: human HMC-1 mast cells; assay: Cyclic AMP accumulation in HMC-1 mast cells (radioimmunoassay); type: cell-based; conditions: FIG. 1B
Description: Functional Responses Of Human HMC-1 Mast Cells to NECA and IB-MECA
In tests as described in "Canine Mast Cell Adenosine Receptors: Cloning and Expression of the A3 Receptor and Evidence that Degranulation is Mediated by the A2B Receptor," Molecular Pharmacology, 52:1-15 (1997) to, Auchampapch et al., that reference being incorporated herein by reference, intact cells were treated with the A3-selective agonist IB-MECA and the nonselective agonist NECA.
FIGS. 1A and 1B show (A) Intracellular Ca^2+ accumulation measured in cells pretreated with the Ca^2+ -sensitive fluorescent reporter, FURA and (B) Cyclic AMP accumulation measured by radioimmunoassay. The results are typical of triplicate experiments.

[7] = molecular target: T5, rhA2B adenosine receptors (Homo sapiens, UniProt P29275); assay: NECA-stimulated cyclic AMP accumulation in HEK 293 cells transfected with rhA2B adenosine receptors, Schild analysis; type: cell-based; conditions: cAMP, cells expressing rhA2B
T5 construct: expressed in transfected cells; host or cells: HEK 293 cells, stably transfected
T5 sequence (P29275 1-332): T4 sequence (P29275 1-332)
From the text: Agonists were used to modulate cAMP in HEK 293 cells stably transfected the rhA2B adenosine receptors or rhA3 adenosine receptors.

[8] = molecular target: T4, recombinant human A2B adenosine receptors; assay: Calcium mobilization in HEK-293 cells transfected with recombinant human A2B adenosine receptors (FURA); type: cell-based; design: expressed in transfected cells; host or cells: cells expressing the recombinant receptor
Description: The activation of the phospholipase C pathway leads to intracellular calcium mobilization.
Calcium mobilization was measured in cells preloaded with FURA.

[9] = molecular target: T4, recombinant human A2B adenosine receptors; assay: IP3 generation in HEK 293 cells transfected with recombinant human A2B adenosine receptors
[10] = molecular target: T3, recombinant human A3 adenosine receptors; assay: Competition radioligand binding to rhA3 adenosine receptors (Example 2); conditions: other subtypes than A2B; FIG. 2 and Table 1
[11] = tested on: adenosine receptors; conditions: cited from earlier work
[12] = molecular target: T4, recombinant human A2B adenosine receptors; assay: Competition for [3H]DPX binding to rhA2B adenosine receptors (Example 2); design: expressed in transfected cells; host or cells: cells expressing the recombinant receptor

Structure (SMILES)	Ki [1] [nM]	Ki [2] [nM]	Ki [3] [nM]	Ki [4] [nM]	Stimulation of calcium mobilization ([5]; worded as canine mast cells)	Intracellular Ca2+ accumulation / calcium mobilization ([5]; human mast cell line HMC-1)	Stimulation of cyclic AMP accumulation ([6]; worded as canine mast cells)	Cyclic AMP accumulation ([6]; human mast cell line HMC-1)	Functional response to agonist [7]	Increase in intracellular Ca2+ content ([8]; human A2B transfected cells)	Increase in IP3 formation ([9]; NECA at 10 μM, rhA2B transfected HEK 293) [fold]	Antagonism of other adenosine receptor subtypes [10]	Binding to adenosine receptors (literature) ([11]; Lunell et al.)	Block of adenosine receptors (literature) ([11]; enprofylline: therapeutic concentration range of 20-50 uM, examined at A1 and A2A only)	Affinity for human A2B versus human A3 adenosine receptors ([12]; competition binding, FIGS. 2A and 2B)	Block of recombinant human A2B adenosine receptors ([12]; therapeutic concentration range of 20-50 μM, FIG. 2 and Table 1)	Block of Ca2+ response induced by 1 μM NECA ([8]; 100 μM antagonist)	Block of increase in IP3 produced by 10 μM NECA ([9]; 250 μM antagonist)
O=C(O)C=Cc1ccc(-c2nc3c([nH]2)c(=O)n(CC2CCCCC2)c(=O)n3CC2CCCCC2)cc1 [BW-A493]	4980 ± 553	1520 ± 797	922 ± 399	198 ± 52	–	–	–	–	–	–	–	–	–	–	–	–	–	–
CCNC(=O)[C@H]1O[C@@H](n2cnc3c(N)ncnc32)[C@H](O)[C@@H]1O [NECA, 5-N-ethylcarboxamidoadenosine]	–	–	–	–	stimulates canine mast cells to mobilize calcium	stimulates human mast cells to mobilize calcium; also recorded: causes intracellular Ca^2+ and cyclic AMP accumulation	stimulates canine mast cells to mobilize calcium and to accumulate cyclic AMP	stimulates human mast cells to mobilize calcium and to accumulate cyclic AMP; also recorded: causes intracellular Ca^2+ and cyclic AMP accumulation	dose-dependent functional response	dose-dependent increase in intracellular Ca^2+ content	3.5	–	–	–	–	–	–	–
CCCn1c(=O)[nH]c(=O)c2[nH]cnc21 [enprofylline]	156000	–	–	–	–	–	–	–	–	–	–	much weaker antagonist of other adenosine receptor subtypes	bind weakly to adenosine receptors	found not to block adenosine receptors	higher affinities for human A2B adenosine receptors than for human A3 adenosine receptors	blocks recombinant human A2B adenosine receptors	totally blocks	able to block the increase in IP3
